biological target: T1, TG2 (human tissue transglutaminase) (Homo sapiens, UniProt P21980); assay: colorimetric AL5 hydrolysis at […] nm, Kitz and Wilson time-dependent inactivation, saturation fit; format: biochemical; conditions: covalent (Cys277), irreversible; 100 µM AL5, corrected for substrate competition; 50 mM MOPS pH 6.91, 15.5 mM CaCl2, 25 °C
T1 construct: gene TGM2; recombinant, expressed in and purified from E. coli as previously described; catalytic Cys277
T1 sequence (P21980 2-687): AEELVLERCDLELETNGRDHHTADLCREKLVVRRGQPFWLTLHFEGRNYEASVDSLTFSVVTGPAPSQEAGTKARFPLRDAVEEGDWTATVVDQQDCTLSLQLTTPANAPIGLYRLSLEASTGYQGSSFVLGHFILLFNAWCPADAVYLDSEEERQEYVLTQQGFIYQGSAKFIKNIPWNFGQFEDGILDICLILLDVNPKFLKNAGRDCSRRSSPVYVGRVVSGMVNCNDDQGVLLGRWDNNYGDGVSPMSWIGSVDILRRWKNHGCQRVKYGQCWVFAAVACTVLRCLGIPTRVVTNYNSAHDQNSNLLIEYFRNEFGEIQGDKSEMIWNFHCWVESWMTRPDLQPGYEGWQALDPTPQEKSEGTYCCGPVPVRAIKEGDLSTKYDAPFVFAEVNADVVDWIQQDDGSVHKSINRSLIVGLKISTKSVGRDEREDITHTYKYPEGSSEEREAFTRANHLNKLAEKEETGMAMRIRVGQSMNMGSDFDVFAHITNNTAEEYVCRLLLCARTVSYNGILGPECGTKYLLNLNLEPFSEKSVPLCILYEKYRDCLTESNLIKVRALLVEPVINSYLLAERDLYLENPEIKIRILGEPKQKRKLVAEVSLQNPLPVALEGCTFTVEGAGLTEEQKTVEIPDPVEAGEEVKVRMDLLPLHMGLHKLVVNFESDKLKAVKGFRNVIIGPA

Compound	KI (inactivation) [µM]
C=CC(=O)NCC(=O)N1CCOCC1 [compound 5, 5]	487 ± 161
C=CC(=O)NCC(=O)N1CCN(C(=O)OC(C)(C)C)CC1 [compound 2, 2]	129 ± 53
C=CC(=O)N1CCN(C(=O)C23CC4CC(CC(C4)C2)C3)CC1 [compound 4, 4]	118 ± 59
C=CC(=O)NCC(N)=O [compound 6, 6]	842 ± 25
C=CC(N)=O [compound 8, acrylamide]	148 ± 68
C=CC(=O)NCC(=O)N1CCN(C(=O)C23CC4CC(CC(C4)C2)C3)CC1 [compound 1, 1]	3.2 ± 1
C=CC(=O)NCC(=O)N1CCN(C(C)=O)CC1 [compound 3, 3]	96 ± 17

Source: PMC11048362, “Conformational Modulation of Tissue Transglutaminase via Active Site Thiol Alkylating Agents: Size Does Not Matter” (Biomolecules, 2024)
